US20200069775A1, “BRAIN OSTEOCALCIN RECEPTOR AND COGNITIVE DISORDERS” (The Trustees of Columbia University in the City of New York, priority 2017, published 2020)

What was measured:
3 month-old WT mice = assay: Alendronate treatment with or without osteocalcin, MWMT and NOR; assay type: in vivo, mouse
Procedure: For plasma injection experiments, 100 μl of plasma were injected 8 times during 24 days, via tail vein. Each group described is represented individually in each panel. For osteocalcin delivery in WT mice, pumps (Alzet micro-osmotic pump, Model 1002) delivering osteocalcin (30 ng/hr for 12 month-old and 90 ng/hr for 16 month-old mice), or vehicle, were surgically installed subcutaneously in the back of mice. […] Control mice receiving vehicle or mice receiving alendronate were implanted with osmotic pumps delivering vehicle only.
Morris water maze test: Animals are transported to the testing room in their home cages, and left undisturbed for at least 30 minutes prior to the first trial. The maze is comprised of a large swimming pool (150cm diameter) filled with water (23° C.) made opaque with non-toxic white paint. The pool is located in a brightly lit room filled with visual cues, including geometric figures on the walls of the maze demarking the four fixed starting positions of the trials, at (12:00, 3:00, 6:00 and 9:00). A 15 cm round platform is hidden 1 cm beneath the surface of the water at a fixed position. Each daily trial block consisted of four swimming trials, with each mouse starting from the same randomly chosen starting position. The starting position is varied between days. On day 1, mice that fail to find the platform within 2 min are guided to the platform. They must remain on the platform for 15 s before they are returned to their home cage. Mice are not guided to the platform after day 1, and the time it takes them to reach the platform over repeated trials ([…] for the next 10 days) is recorded as a measure of spatial learning.
Novel object recognition test (NOR): The NOR paradigm assesses the rodent's ability to recognize a novel object in the environment. The NOR task will be conducted, as previously described7, in an opaque plastic box using 2 different objects: (1) a clear plastic funnel (diameter 8.5 cm, maximal height 8.5 cm) and (2) a black plastic box (9.5 cm^3). These objects elicit equal levels of exploration as determined in pilot experiments (Denny, C. A., et al., 2012, Hippocampus 22:1188-1201; Oury, F., et al., 2013, Cell 155:228-241). The NOR paradigm consists of 3 exposures over the course of 3 days. On day 1, the habituation phase, mice are given 5 minutes to explore the empty arena, without any objects. On day 2, the familiarization phase, mice are given 10 minutes to explore 2 identical objects, placed at opposite ends of the box. On day 3, the test phase, mice are given 15 minutes to explore 2 objects, one novel object and a copy of the object from the familiarization phase. The object that serves as the novel object (either the funnel or the box) as well as the left/right starting position of the objects are counterbalanced within each group. Mice are placed in the center of the arena at the start of each exposure. […] Preference for the novel object is assessed based on the fraction of time that a mouse spends exploring the novel object compared to the familiar object. Exploration is scored from video recordings of each exposure and recorded using the Stopwatch program. […]
Streptavidin were added for 30 minutes at room temperature followed by PBS washes. […] For hormonal measurement; circulating levels of the carboxylated, undercarboxylated or uncarboxylated forms of osteocalcin were measured by ELISA. CTX content in serum (ng/ml) were measured with specific ELISAs (RatLaps™ (CTX-I) EIA (Immunodiagnosticsystems).

[1] = test system: brainstem neurons (dorsal raphe 5-HT neurons, locus coeruleus, GABAergic interneurons); assay: Whole cell current clamp recording in brainstem slices; assay type: cell-based, mouse; conditions: 3 μM, current clamp in slices
Procedure: Brain slice preparations and electrophysiological recordings were performed according to methods known in the art. Briefly, WT mice were anesthetized with ether and then decapitated. The brains were rapidly removed and immersed in an oxygenated bath solution at 40° C. containing (in mM): sucrose 220, KCl 2.5, CaCl2 1, MgC12 6, NaH2PO4 1.25, NaHCO3 26, and glucose 10 pH 7.3 with NaOH. Coronal slices (350 μm thick) containing dorsal raphe (DR) were cut on a vibratome and maintained in a holding chamber with artificial cerebrospinal fluid (ACSF) (bubbled with 5% CO2 and 95% O2) containing (in mM): NaCl 124, KCl 3, CaCl2 2, MgCl2 2, NaH2PO4 1.23, NaHCO3 26, glucose 10, pH 7.4 with NaOH, and were transferred to a recording chamber constantly perfused with bath solution (330 C) at 2 ml/min after at least a 1 hr recovery. Whole-cell current clamp was performed to observe action potentials in DR serotoninergic (5-HT) neurons with a Multiclamp 700A amplifier (Axon instrument, CA). Patch pipettes with a tip resistance of 4-6 MΩ were made of borosilicate glass (World Precision Instruments) with a Sutter pipette puller (P-97) and filled with a pipette solution containing (in mM): K-gluconate (or Cs-gluconate) 135, MgCl2 2, HEPES 10, EGTA 1.1, Mg-ATP 2, Na2-phosphocreatine 10, and Na2-GTP 0.3, pH 7.3 with KOH. After a giga-Ohm (GΩ) seal and whole-cell access were achieved, the series resistance (between 20 and 40 MΩ) was partially compensated by the amplifier. […] All data were sampled at 3-10 kHz and filtered at 1-3 kHz with an Apple Macintosh computer using Axograph 4.9 (Axon Instruments). Electrophysiological data were analyzed with Axograph 4.9 and plotted with Igor Pro software (WaveMetrics, Lake Oswego, Oreg.).

[2] = Blood brain barrier crossing: subcutaneous pump infusion, content in blood, bone and brain parts by ELISA; assay type: in vivo, mouse; conditions: ob/ob mice, subcutaneous infusion 50 ng/hour, seven days; positive control
Procedure: Osteocalcin−/−, Gprc6a−/−, Osteocalcin-mCherry, and Osteocalcin foxed mice have been previously described (Ducy et al., 1996, Nature 382:448-452; Oury et al., 2011, Cell 144:796-809). Mouse genotypes were determined by PCR. For all experiments, controls were littermate female WT, Cre-expressing, or flox/flox. All mice were maintained on a pure 129-Sv genetic background except for the inducible deletion Osteocalcin model (mix background: 25% C57/BL6 and 75% 129sv). For inducible gene deletion mice, tamoxifen was prepared in corn oil and injected intraperitoneally (IP) (1 mg/20g of body weight) over one week. For osteocalcin delivery to pregnant mice, IP injections (240 ng/day) were performed as soon as a plug was present daily until delivery (E0.5-E18.5). For osteocalcin or leptin infusion in adult Osteocalcin−/− or ob/ob mice, pumps (Alzet micro-osmotic pump, Model 1002) delivering osteocalcin (300 ng/hr), leptin (50 ng/hr), or vehicle were surgically installed subcutaneously in the backs of 3-month old mice. For the postnatal rescue of cognitive functions in Osteocalcin−/− mice, osteocalcin (10 ng/hour) or vehicle were delivered intrasubventricularly (icv) as previously described (Ducy et al., 2000, Cell 100:197-207). Leptin and osteocalcin content in sera and tissues were determined by ELISA.
To understand how this behavioral phenotype develops, whether osteocalcin crosses the blood brain barrier (BBB) was tested by installing pumps that subcutaneously delivered vehicle or uncarboxylated osteocalcin (50 ng/hour) in three-month-old Osteocalcin−/− mice. The positive control for this experiment was subcutaneous infusion of leptin (50 ng/hour) in 3 month-old ob/ob mice, since leptin is known to cross the BBB (Banks et al., 1996, Peptides 17:305-311). Seven days later, osteocalcin and leptin content were measured in blood, bone, and in various parts of the brain in Osteocalcin−/− and ob/ob mice, respectively.

[3] = test system: Tph2, Th, Gad1 expression in brainstem and midbrain explants; assay: Gene expression (qPCR) in brainstem and midbrain explants; assay type: cell-based, mouse; conditions: leptin positive control; WT or Gprc6a−/− brainstem explants
Procedure: For gene expression studies, RNA was isolated from primary neurons or tissue using TRIZOL® (Invitrogen). cDNA synthesis was performed following a standard protocol from Invitrogen and qPCR analyses were done using specific quantitative PCR primers from SABiosciences (http://www.sabiosciences.com/RT2PCR.php).
Brains were dissected and incubated for 30 minutes in ice cold oxygenated artificial cerebrospinal fluid (ACSF). Brains were then sliced at 500 μm at the midbrain, −1.55 to −2.35 mm from the bregma, and at the level of the brainstem, from −4.04 to −4.48 mm and from −4.60 to −5.20 mm from the bregma, to include the median and dorsal raphe, respectively. These slices were incubated in ACSF for 1 h, constantly oxygenated (95% O2 and 5% CO2) […], after which they were treated with either osteocalcin (10 ng/ml) or PBS for four hours. Expression of Tph2, TH, GAD 1, GAD2, and Ddc was measured by qPCR.
To determine if osteocalcin acts directly on neurons to modulate neurotransmitter synthesis, several types of assays were performed. First, brainstem and midbrain explants from WT and Gprc6a^−/− mice were generated. Brains were sliced (500 μm) at the level of the median and dorsal raphe of the brainstem (from −4.04 to −4.48 mm and from −4.60 to −5.20 mm, respectively), so that they would be enriched in serotonin-producing neurons, as well as at the level of substantia nigrae and ventral tegmental areas (VTA) of the midbrain (from −1.55 to −2.35 mm and from −2.55 to −3.25 mm, respectively). Enrichment in serotoninergic and catecholaminergic neurons in these explants was verified by their high Tph2 and Th expression. While leptin, used here as a positive control, reduced, as it should, Tph2 expression in WT or Gprc6a^−/− brainstem explants, osteocalcin ([…]) increased expression of this gene 2.5 fold in both WT and Gprc6a^−/− explants. (FIG. 3D). […] Third, to further confirm that osteocalcin signals in neurons of the hindbrain, calcium flux in MPHN treated with undercarboxylated or carboxylated osteocalcin (FIG. 3F) was measured.

## NCCCC(O)(P(=O)(O)O)P(=O)(O)O [alendronate]
3 month-old WT mice; 3 week-long treatment
  bone resorption: inhibited bone resorption
  circulating levels of bioactive osteocalcin: decreased the circulating levels of bioactive osteocalcin
3 month-old WT mice; alendronate-treated mice
  learning in the MWMT: delay in learning in the MWMT
  memory in NOR: memory deficit in NOR

## CN1CC(=O)N=C1N.NCCc1c[nH]c2ccc(O)cc12.O=S(=O)(O)O [serotonin creatinine sulfate complex, reference compound]
[1]
  action potentials in dorsal raphe 5-HT neurons: inhibited action potentials

B1: leptin (protein, UniProt P41160 22-167, looked up)
Leptin: VPIQKVQDDTKTLIKTIVTRINDISHTQSVSAKQRVTGLDFIPGLHPILSLSKMDQTLAVYQQVLTSLPSQNVLQIANDLENLRDLLHLLAFSKSCSLPQTSGLQKPESLDGVLEASLYSTEVVALSRLQGSLQDILQQLDVSPEC
notes: adipocyte-derived hormone, positive control known to cross the BBB
[2]
  leptin content in parts of the brain: could be detected in the brainstem and hypothalamus
[3]
  Tph2 expression: reduced
